# Results from ChEMBL document CHEMBL4699396, “Macrocyclic peptidomimetics as inhibitors of insulin-regulated aminopeptidase (IRAP)” (RSC Med Chem, 2020).
# Tested on: Insulin-regulated aminopeptidase (Homo sapiens)
# Test: Binding affinity to recombinant full length human IRAP expressed in HEK293T cells assessed as binding free energy
row,Structure (SMILES),deltaG [kcal/mol]
1,N[C@H]1CC/C=C\CC[C@@H](C(=O)NCc2ccccc2CC(=O)O)NC(=O)C[C@H](Cc2ccc(O)cc2)NC1=O,-10.7
2,N[C@H]1CC/C=C/CC[C@@H](C(=O)NCc2ccccc2CC(=O)O)NC(=O)C[C@H](Cc2ccc(O)cc2)NC1=O,-12.4
